Source: patent US20260042769A1, “TRIARYL AGONISTS OF ALPHA-2 ADRENERGIC RECEPTORS” (ALCEPTOR THERAPEUTICS, INC., priority 2023, published 2026)

The compounds below were run against T1, human ADRA2B receptor (Homo sapiens, UniProt P18089) (assay: GTPγS agonist assay, ADRA2B receptor). Conditions: read-out: GTPase - Human Alpha2B EC50.
T1 construct: expressed in transfected cells
T1 sequence (P18089 1-450): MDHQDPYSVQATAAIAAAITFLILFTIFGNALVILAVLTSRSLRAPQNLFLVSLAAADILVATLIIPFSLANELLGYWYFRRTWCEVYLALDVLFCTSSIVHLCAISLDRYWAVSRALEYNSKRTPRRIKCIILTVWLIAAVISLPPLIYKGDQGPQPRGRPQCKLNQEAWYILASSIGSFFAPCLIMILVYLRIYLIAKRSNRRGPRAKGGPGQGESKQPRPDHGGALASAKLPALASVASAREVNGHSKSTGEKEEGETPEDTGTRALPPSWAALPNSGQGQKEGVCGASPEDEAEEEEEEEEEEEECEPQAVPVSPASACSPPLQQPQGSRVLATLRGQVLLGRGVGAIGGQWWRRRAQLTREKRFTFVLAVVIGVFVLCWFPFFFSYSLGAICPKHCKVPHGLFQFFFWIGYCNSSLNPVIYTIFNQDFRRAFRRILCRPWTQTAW
Assay type: biochemical
Procedure, shortened: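 CHO-K1 membranes stably expressing human ADRA2B (5 μg protein) in 20 mM HEPES, 10 mM MgCl2, 200 mM NaCl with GDP, preincubated 10 min at room temperature with compound. Binding reaction 1 h at 37° C; bound label collected on GF/C filters, washed, read by scintillation counting.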

Row | SMILES | EC50 [nM]
1 | COc1nccc(CC(c2c[nH]cn2)c2cccc(Cl)c2OC)n1 (centres unmarked) [Compound 198, 4-[2-(3-chloro-2-methoxyphenyl)-2-(4-imidazolyl)ethyl]-2-methoxypyrimidine] | 10 to 50
2 | Cc1cnc(C[C@H](c2cnc[nH]2)c2cccc(C)c2C)nc1 [Compound 74, 2-[(2S)-2-(2,3-dimethylphenyl)-2-(1H-imidazol-4-yl)ethyl]-5-methyl-pyrimidine] | > 500
3 | COc1cccc(C(Cc2cccc(OC)n2)c2cnc[nH]2)c1 (centres unmarked) [Compound 25, 2-[2-(1H-imidazol-4-yl)-2-(3-methoxyphenyl)ethyl]-6-methoxypyridine] | 50 to 500
4 | Cc1cccc(C(Cc2ccc(Cl)cn2)c2cnc[nH]2)c1C (centres unmarked) [Compound 90, 5-chloro-2-[2-(2,3-dimethylphenyl)-2-(1H-imidazol-4-yl)ethyl] pyridine] | < 10
5 | Cc1cccc([C@H](Cc2ccon2)c2c[nH]cn2)c1C [Compound 101, 3-[(S)-2-(4-imidazolyl)-2-(2,3-xylyl)ethyl] isoxazole] | 50 to 500
6 | FC(F)(F)c1ccc(C(Cc2cccnn2)c2c[nH]cn2)cc1 (centres unmarked) [Compound 223, 3-{2-(4-imidazolyl)-2-[p-(trifluoromethyl)phenyl]ethyl}pyridazine] | > 500
7 | Cc1cccc([C@@H](Cc2cccnn2)c2cnc[nH]2)c1C [Compound 56, 3-[(2R)-2-(2,3-dimethylphenyl)-2-(1H-imidazol-4-yl)ethyl] pyridazine] | > 500
8 | Cc1cccc([C@H](Cc2ccn(C)n2)c2c[nH]cn2)c1C [Compound 106, 3-[(S)-2-(4-imidazolyl)-2-(2,3-xylyl)ethyl]-1-methylpyrazole] | 10 to 50
9 | Cc1cccc(C(Cc2ccncn2)c2cnc[nH]2)c1C (centres unmarked) [Compound 92, 4-[2-(2,3-dimethylphenyl)-2-(1H-imidazol-4-yl)ethyl] pyrimidine] | 10 to 50
10 | Cc1c(Cl)cccc1C(Cc1ccccn1)c1cnc[nH]1 (centres unmarked) [Compound 49, 2-[2-(3-chloro-2-methylphenyl)-2-(1H-imidazol-4-yl)ethyl] pyridine] | 50 to 500
11 | FC(F)(F)Oc1ccc(C(Cc2cccnn2)c2c[nH]cn2)cc1 (centres unmarked) [Compound 220, 3-[2-(4-imidazolyl)-2-(p-trifluoromethoxyphenyl)ethyl]pyridazine] | > 500
12 | COc1nccc(CC(c2ccc(Cl)cc2)c2c[nH]cn2)n1 (centres unmarked) [Compound 159, 4-[2-(p-chlorophenyl)-2-(4-imidazolyl)ethyl]-2-methoxypyrimidine] | 50 to 500
13 | COc1cccc(C[C@@H](c2cnc[nH]2)c2cccc(OC)c2C)n1 [Compound 27, 2-[(2R)-2-(1H-imidazol-4-yl)-2-(3-methoxy-2-methylphenyl)ethyl]-6-methoxypyridine] | < 10
14 | Cc1ccc(Cl)cc1C(Cc1cccnn1)c1c[nH]cn1 (centres unmarked) [Compound 225, 3-[2-(5-chloro-2-tolyl)-2-(4-imidazolyl)ethyl] pyridazine] | > 500
15 | COc1cc(CC(c2c[nH]cn2)c2cccc3c2OCC3)nc(OC)n1 (centres unmarked) [Compound 335, 4-(2-(2,3-dihydrobenzofuran-7-yl)-2-(1H-imidazol-4-yl)ethyl)-2,6-dimethoxypyrimidine] | < 10
16 | COc1cccc(C[C@@H](c2cccc(Cl)c2)c2cnc[nH]2)n1 [Compound 21, 2-[(2S)-2-(3-chlorophenyl)-2-(1H-imidazol-4-yl)ethyl]-6-methoxypyridine] | 10 to 50
17 | c1cc2c(c([C@@H](Cc3cnn(C4CC4)c3)c3c[nH]cn3)c1)OCC2 [Compound 289] | > 500
18 | c1cnnc(C[C@@H](c2c[nH]cn2)c2cccc3c2OCC3)c1 (single isomer, unassigned) [Compound 362] | 10 to 50
19 | Fc1cccc(C(Cc2cccnn2)c2c[nH]cn2)c1Cl (centres unmarked) [Compound 218, 3-[2-(2-chloro-3-fluorophenyl)-2-(4-imidazolyl)ethyl] pyridazine] | > 500
20 | c1ccc(C[C@H](c2cnc[nH]2)c2cccc3c2COC3)nc1 [Compound 45, 2-[(2S)-2-(1,3-dihydro-2-benzofuran-4-yl)-2-(1H-imidazol-4-yl)ethyl] pyridine] | > 500
21 | FC1(F)Oc2cccc([C@H](Cc3ccccn3)c3c[nH]cn3)c2O1 [Compound 122, 4-[(S)-1-(4-imidazolyl)-2-(2-pyridyl)ethyl]-2,2-difluoro-2H-1,3-benzodioxole] | > 500
22 | Cc1cccc(C(Cc2ncc(F)cn2)c2c[nH]cn2)c1C (centres unmarked) [Compound 112, 5-fluoro-2-[2-(4-imidazolyl)-2-(2,3-xylyl)ethyl] pyrimidine] | 50 to 500

Row | SMILES | EC50 [nM]
23 | Cc1cccc([C@H](Cc2ccccn2)c2cnc[nH]2)c1F [Compound 39, 2-[(2S)-2-(2-fluoro-3-methylphenyl)-2-(1H-imidazol-4-yl)ethyl] pyridine] | > 500
24 | Cc1cccc([C@@H](Cc2ccccn2)c2cnc[nH]2)c1F [Compound 40, 2-[(2R)-2-(2-fluoro-3-methylphenyl)-2-(1H-imidazol-4-yl)ethyl] pyridine] | 10 to 50
25 | Cc1c(Cl)cccc1[C@@H](Cc1cccnc1)c1cnc[nH]1 [Compound 63, 3-[(2R)-2-(3-chloro-2-methylphenyl)-2-(1H-imidazol-4-yl)ethyl]pyridine] | < 10
26 | COc1ccc(C(Cc2cccnn2)c2c[nH]cn2)cc1 (centres unmarked) [Compound 222, 3-[2-(4-imidazolyl)-2-(p-methoxyphenyl)ethyl] pyridazine] | > 500
27 | Cc1cc(C[C@@H](c2c[nH]cn2)c2cccc(C)c2C)no1 [Compound 135, 3-[(R)-2-(4-imidazolyl)-2-(2,3-xylyl)ethyl]-5-methyl-isoxazole] | > 500
28 | Cc1cccc(C(Cc2cnn(C3CC3)c2)c2c[nH]cn2)c1C (centres unmarked) [Compound 271, 1-cyclopropyl-4-[2-(4-imidazolyl)-2-(2,3-xylyl)ethyl]pyrazole] | < 10
29 | Clc1ccc(C(Cc2cccnn2)c2c[nH]cn2)cc1 (centres unmarked) [Compound 217, 3-[2-(p-chlorophenyl)-2-(4-imidazolyl)ethyl] pyridazine] | > 500
30 | Cc1cncc(CC(c2cnc[nH]2)c2cccc(C)c2C)n1 (centres unmarked) [Compound 88, 2-[2-(2,3-dimethylphenyl)-2-(1H-imidazol-4-yl)ethyl]-6-methylpyrazine] | 10 to 50
31 | COc1cccc(C[C@H](c2cccc(Cl)c2)c2cnc[nH]2)n1 [Compound 22, 2-[(2R)-2-(3-chlorophenyl)-2-(1H-imidazol-4-yl)ethyl]-6-methoxypyridine] | > 500
32 | COc1nccc(CC(c2c[nH]cn2)c2cc(Cl)ccc2C)n1 (centres unmarked) [Compound 184, 4-[2-(5-chloro-2-tolyl)-2-(4-imidazolyl)ethyl]-2-methoxypyrimidine] | 50 to 500
33 | Cc1nc(C[C@@H](c2cnc[nH]2)c2cccc(C)c2C)cs1 [Compound 102, 4-[(R)-2-(4-imidazolyl)-2-(2,3-xylyl)ethyl]-2-methyl-1,3-thiazole] | 10 to 50
34 | COc1nccc(CC(c2c[nH]cn2)c2cccc(Cl)c2C)n1 (centres unmarked) [Compound 185, 4-[2-(3-chloro-2-tolyl)-2-(4-imidazolyl)ethyl]-2-methoxypyrimidine] | < 10
35 | COc1nccc(CC(c2ccc(C(F)(F)F)cc2)c2c[nH]cn2)n1 (centres unmarked) [Compound 199, 4-{2-(4-imidazolyl)-2-[p-(trifluoromethyl)phenyl]ethyl}-2-methoxypyrimidine] | > 500
36 | COc1nccc(CC(c2c[nH]cn2)c2cccc(C#N)c2F)n1 (centres unmarked) [Compound 177, 2-fluoro-3-[1-(4-imidazolyl)-2-(2-methoxy-4-pyrimidinyl)ethyl] benzonitrile] | 50 to 500
37 | COc1nccc(CC(c2c[nH]cn2)c2cccc3c2ccn3C)n1 (centres unmarked) [Compound 193, 4-[2-(4-imidazolyl)-2-(1-methyl-4-indolyl)ethyl]-2-methoxypyrimidine] | < 10
38 | COc1ccc(Cl)c(C(Cc2cccnn2)c2c[nH]cn2)c1 (centres unmarked) [Compound 227, 3-[2-(2-chloro-5-methoxyphenyl)-2-(4-imidazolyl)ethyl] pyridazine] | > 500
39 | Fc1ccc(C(Cc2cccnn2)c2c[nH]cn2)c(F)c1Cl (centres unmarked) [Compound 173, 3-[2-(3-chloro-2,4-difluorophenyl)-2-(4-imidazolyl)ethyl] pyridazine] | > 500
40 | COc1cccc(C[C@@H](c2cnc[nH]2)c2cccc3c2OCC3)n1 [Compound 17, 2-[(2R)-2-(2,3-dihydro-1-benzofuran-7-yl)-2-(1H-imidazol-4-yl)ethyl]-6-methoxypyridine] | 50 to 500
41 | COc1nccc(CC(c2c[nH]cn2)c2cccc3c2cnn3C)n1 (centres unmarked) [Compound 194, 4-[1-(4-imidazolyl)-2-(2-methoxy-4-pyrimidinyl)ethyl]-1-methyl-1H-indazole] | 10 to 50
42 | Cc1cnc(CC(c2c[nH]cn2)c2cccc3c2OCC3)s1 (centres unmarked) [Compound 279, 2-[2-(2,3-dihydro-1-benzofuran-7-yl)-2-(4-imidazolyl)ethyl]-5-methyl-1,3-thiazole] | 10 to 50
43 | Cc1cc(C[C@H](c2cnc[nH]2)c2cccc(C)c2C)n(C)n1 [Compound 68, 5-[(2S)-2-(2,3-dimethylphenyl)-2-(1H-imidazol-4-yl)ethyl]-1,3-dimethyl-1H-pyrazole] | > 500
44 | Cc1cccc(C(Cc2ccc(N3CCCC3)nc2)c2c[nH]cn2)c1C (centres unmarked) [Compound 309, 4-{2-[6-(1-pyrrolidinyl)-3-pyridyl]-1-(2,3-xylyl)ethyl}imidazole] | 10 to 50
